target: T1, PDE10 (UniProt Q8CA95); assay: PDE10 enzyme inhibition, IMAP TR-FRET assay (Example A: MPDE10A7 Enzyme Activity and Inhibition); type: biochemical; settings: Table 2A, Examples 61-64; read-out: IC50
T1 sequence (Q8CA95 1-790): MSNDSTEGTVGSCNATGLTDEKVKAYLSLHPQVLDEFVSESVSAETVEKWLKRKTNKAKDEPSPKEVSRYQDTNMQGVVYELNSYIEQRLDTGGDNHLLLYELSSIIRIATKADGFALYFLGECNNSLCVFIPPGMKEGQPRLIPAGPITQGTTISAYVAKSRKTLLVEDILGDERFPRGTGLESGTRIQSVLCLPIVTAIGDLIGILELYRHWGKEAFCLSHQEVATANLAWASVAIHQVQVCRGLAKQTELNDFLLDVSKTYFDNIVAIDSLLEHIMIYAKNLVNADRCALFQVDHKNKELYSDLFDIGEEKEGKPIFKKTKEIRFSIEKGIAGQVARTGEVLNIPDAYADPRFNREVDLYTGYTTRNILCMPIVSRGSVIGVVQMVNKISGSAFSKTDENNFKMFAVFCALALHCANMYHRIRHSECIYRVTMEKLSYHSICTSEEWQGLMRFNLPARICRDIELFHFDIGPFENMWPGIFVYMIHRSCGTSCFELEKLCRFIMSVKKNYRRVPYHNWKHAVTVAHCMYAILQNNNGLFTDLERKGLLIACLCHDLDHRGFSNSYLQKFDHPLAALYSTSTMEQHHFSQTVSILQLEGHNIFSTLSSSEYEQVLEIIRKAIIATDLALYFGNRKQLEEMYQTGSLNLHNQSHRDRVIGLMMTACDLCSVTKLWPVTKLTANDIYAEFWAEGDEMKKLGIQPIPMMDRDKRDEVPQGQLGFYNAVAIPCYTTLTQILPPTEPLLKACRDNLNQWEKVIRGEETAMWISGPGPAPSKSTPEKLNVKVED
Description: MPDE10A7 Enzyme Activity and Inhibition Enzyme Activity. An IMAP TR-FRET assay was used to analyze the enzyme activity (Molecular Devices Corp., Sunnyvale Calif.). 5 μL of serial diluted PDE10A (BPS Bioscience, San Diego, Calif.) or tissue homogenate was incubated with equal volumes of diluted fluorescein labeled cAMP or cGMP for 60 min in 384-well polystyrene assay plates (Corning, Corning, N.Y.) at room temperature. After incubation, the reaction was stopped by adding 60 μL of diluted binding reagents and was incubated for 3 hours to overnight at room temperature. The plates were read on an Envision (Perkin Elmer, Waltham, Mass.) for time resolved fluorescence resonance energy transfer. The data were analyzed with GraphPad Prism (La Jolla, Calif.). Enzyme Inhibition. To check the inhibition profile, 5 μL of serial diluted compounds were incubated with 5 μL of diluted PDE10 enzyme (BPS Bioscience, San Diego, Calif.) or tissue homogenate in a 384-well polystyrene assay plate (Corning, Corning, N.Y.) for 30 min at room temperature. After incubation, 10 μL of diluted fluorescein labeled cAMP or cGMP substrate were added and incubated for 60 min at room temperature. The reaction was stopped by adding 60 μL of diluted binding reagents and plates were read on an Envision (Perkin Elmer, Waltham, Mass.) for time resolved fluorescence resonance energy transfer. The data were analyzed with GraphPad Prism (La Jolla, Calif.).

| SMILES | IC50 [nM] |
| --- | --- |
| CC1CCN(c2nccnc2N2CC(c3ccc4ccccc4n3)C2)CC1 [Example 61, 2-{1-[3-(4-Methyl-piperidin-1-yl)-pyrazin-2-yl]-azetidin-3-yl}-quinoline] | 3120 |
| OCC1CCN(c2nccnc2N2CC(c3ccc4ccccc4n3)C2)CC1 [Example 62, {1-[3-(3-Quinolin-2-yl-azetidin-1-yl)-pyrazin-2-yl]-piperidin-4-yl}-methanol] | 358 |
| CC1CCN(c2nccnc2N2CC(c3ccc4ccccc4n3)C2)C1 (stereo not shown) [Example 63, 2-{1-[3-(3-Methyl-pyrrolidin-1-yl)-pyrazin-2-yl]-azetidin-3-yl}-quinoline] | 641 |
| COc1cccc(-c2nccnc2N2CC(c3ccc4ccccc4n3)C2)c1 [Example 64, 2-{1-[3-(3-Methoxy-phenyl)-pyrazin-2-yl]-azetidin-3-yl}-quinoline] | 17.5 |

From patent US8946230B2, “Aryl- and heteroaryl- nitrogen-heterocyclic compounds as PDE10 inhibitors” (Amgen Inc., priority 2010, dated 2015)
